Read-outs that look alike come from different tables or passages of the source.
Molecular target: T1, N-type Ca^2+ Channel (Homo sapiens, UniProt Q00975)
T1 construct: host or cells: IMR-32 cells differentiated with dibutyryl cAMP and bromodeoxyuridine
Assay: Measurement of N-type Ca2+ channel blocking potencies in IMR-32 cells using the fluorescent Ca2+ indicator Indo-1
Type: cell-based
Conditions: for IC50: read-out: IMR 32 IC50
Method: Measurement of N-type Ca^2+ Channel Blocking Potencies of Compounds in IMR-32 Cells Using the Fluorescent Ca^2 + Indicator Indo-1
IMR-32 cells are a human tumoral cell line of neural origin. […] Calcium flux into these cells may be induced by stimulation with elevated potassium concentrations. The L-channel component of calcium flux may be blocked by adding 5 μM nitrendipine. The remaining component of calcium entry into the IMR-32 cells is due to calcium flux through N-type calcium channels. Intracellular calcium concentrations are measured using the fluorescent calcium indicator Indo-1. The effect of drug concentration on calcium uptake is studied.
The IMR-32 cell line was obtained from the American Type Culture Collection (Rockville, Md.). Cells were grown in Eagle's Minimum Essential Medium with Earle's salts supplemented with 10% fetal bovine serum, 2 mM L-Gln and antibiotic/antimycotic mixture (Gibco). At approximately 80% confluency, differentiation was induced by the addition of 1 mM dibutyryl cAMP and 2.5 μM bromodeoxyuridine to the medium. After 7 to 13 days of differentiation, cells were detached using 0.5 mM EDTA and loaded with 5 μM Indo-1 acetoxymethyl ester (Molecular Probes, Eugene, Oreg.) at 30° C. for 45 minutes. Loaded cells were washed twice, resuspended (~10^7 cells/mL) in assay buffer (10 mM HEPES/Tris pH 7.4 in Hank's Balanced Salt Solution without bicarbonate or phenol red containing 0.5% bovine serum albumin) and kept on ice until use. Fluorescence measurements were carried out in a Photon Technology International (PTI, South Brunswick, N.J.) Model RF-F3004 spectrofluorometer with dual emission monochromators using excitation at 350 nm and emission at 400 and 490 nm. The instrument was equipped with a thermostated cuvette holder with stirring capabilities as well as with a computer-controlled pump which allowed for reagent addition during measurement. Instrument control and data collection was done by PTI's OSCAR software running on an IBM compatible computer. Different concentrations of the test compounds (60 μL in dimethyl sulfoxide) were added to 5.94 mL of assay buffer containing approximately 3×10^6 loaded cells, and 5 μM nitrendipine (in 30 μL EtOH) to block L-type Ca^2+ channels. Samples were incubated for 10 minutes at 30° C. and then aliquoted into three 10×10 mm disposable acrylic cuvettes. Emission signals at 400 and 490 nm were acquired from each cuvette at 30° C. for 50 seconds. At 20 seconds after the start of reading, cells were depolarized by the addition of 160 μL of stimulation solution (1 M KCl, 68 mM CaCl2) to the cuvette via the computer-controlled pump. Ratio of dual emission signals (400 nm/ 490 nm), which is proportional to intracellular Ca^2+ concentration, was plotted against time, and the difference between maximal response after stimulation and basal value (before stimulation) was determined. Values obtained in this way were plotted as a function of drug concentration. IC50 values of test compounds were calculated by fitting a four-parameter logistic function to the data using the least squares method.

[1] = IMR-32 cells, 5 μM nitrendipine
[2] = IMR-32 cells, K+ depolarization, 5 μM nitrendipine to block L-type channels

T1 sequence (Q00975 whole entry): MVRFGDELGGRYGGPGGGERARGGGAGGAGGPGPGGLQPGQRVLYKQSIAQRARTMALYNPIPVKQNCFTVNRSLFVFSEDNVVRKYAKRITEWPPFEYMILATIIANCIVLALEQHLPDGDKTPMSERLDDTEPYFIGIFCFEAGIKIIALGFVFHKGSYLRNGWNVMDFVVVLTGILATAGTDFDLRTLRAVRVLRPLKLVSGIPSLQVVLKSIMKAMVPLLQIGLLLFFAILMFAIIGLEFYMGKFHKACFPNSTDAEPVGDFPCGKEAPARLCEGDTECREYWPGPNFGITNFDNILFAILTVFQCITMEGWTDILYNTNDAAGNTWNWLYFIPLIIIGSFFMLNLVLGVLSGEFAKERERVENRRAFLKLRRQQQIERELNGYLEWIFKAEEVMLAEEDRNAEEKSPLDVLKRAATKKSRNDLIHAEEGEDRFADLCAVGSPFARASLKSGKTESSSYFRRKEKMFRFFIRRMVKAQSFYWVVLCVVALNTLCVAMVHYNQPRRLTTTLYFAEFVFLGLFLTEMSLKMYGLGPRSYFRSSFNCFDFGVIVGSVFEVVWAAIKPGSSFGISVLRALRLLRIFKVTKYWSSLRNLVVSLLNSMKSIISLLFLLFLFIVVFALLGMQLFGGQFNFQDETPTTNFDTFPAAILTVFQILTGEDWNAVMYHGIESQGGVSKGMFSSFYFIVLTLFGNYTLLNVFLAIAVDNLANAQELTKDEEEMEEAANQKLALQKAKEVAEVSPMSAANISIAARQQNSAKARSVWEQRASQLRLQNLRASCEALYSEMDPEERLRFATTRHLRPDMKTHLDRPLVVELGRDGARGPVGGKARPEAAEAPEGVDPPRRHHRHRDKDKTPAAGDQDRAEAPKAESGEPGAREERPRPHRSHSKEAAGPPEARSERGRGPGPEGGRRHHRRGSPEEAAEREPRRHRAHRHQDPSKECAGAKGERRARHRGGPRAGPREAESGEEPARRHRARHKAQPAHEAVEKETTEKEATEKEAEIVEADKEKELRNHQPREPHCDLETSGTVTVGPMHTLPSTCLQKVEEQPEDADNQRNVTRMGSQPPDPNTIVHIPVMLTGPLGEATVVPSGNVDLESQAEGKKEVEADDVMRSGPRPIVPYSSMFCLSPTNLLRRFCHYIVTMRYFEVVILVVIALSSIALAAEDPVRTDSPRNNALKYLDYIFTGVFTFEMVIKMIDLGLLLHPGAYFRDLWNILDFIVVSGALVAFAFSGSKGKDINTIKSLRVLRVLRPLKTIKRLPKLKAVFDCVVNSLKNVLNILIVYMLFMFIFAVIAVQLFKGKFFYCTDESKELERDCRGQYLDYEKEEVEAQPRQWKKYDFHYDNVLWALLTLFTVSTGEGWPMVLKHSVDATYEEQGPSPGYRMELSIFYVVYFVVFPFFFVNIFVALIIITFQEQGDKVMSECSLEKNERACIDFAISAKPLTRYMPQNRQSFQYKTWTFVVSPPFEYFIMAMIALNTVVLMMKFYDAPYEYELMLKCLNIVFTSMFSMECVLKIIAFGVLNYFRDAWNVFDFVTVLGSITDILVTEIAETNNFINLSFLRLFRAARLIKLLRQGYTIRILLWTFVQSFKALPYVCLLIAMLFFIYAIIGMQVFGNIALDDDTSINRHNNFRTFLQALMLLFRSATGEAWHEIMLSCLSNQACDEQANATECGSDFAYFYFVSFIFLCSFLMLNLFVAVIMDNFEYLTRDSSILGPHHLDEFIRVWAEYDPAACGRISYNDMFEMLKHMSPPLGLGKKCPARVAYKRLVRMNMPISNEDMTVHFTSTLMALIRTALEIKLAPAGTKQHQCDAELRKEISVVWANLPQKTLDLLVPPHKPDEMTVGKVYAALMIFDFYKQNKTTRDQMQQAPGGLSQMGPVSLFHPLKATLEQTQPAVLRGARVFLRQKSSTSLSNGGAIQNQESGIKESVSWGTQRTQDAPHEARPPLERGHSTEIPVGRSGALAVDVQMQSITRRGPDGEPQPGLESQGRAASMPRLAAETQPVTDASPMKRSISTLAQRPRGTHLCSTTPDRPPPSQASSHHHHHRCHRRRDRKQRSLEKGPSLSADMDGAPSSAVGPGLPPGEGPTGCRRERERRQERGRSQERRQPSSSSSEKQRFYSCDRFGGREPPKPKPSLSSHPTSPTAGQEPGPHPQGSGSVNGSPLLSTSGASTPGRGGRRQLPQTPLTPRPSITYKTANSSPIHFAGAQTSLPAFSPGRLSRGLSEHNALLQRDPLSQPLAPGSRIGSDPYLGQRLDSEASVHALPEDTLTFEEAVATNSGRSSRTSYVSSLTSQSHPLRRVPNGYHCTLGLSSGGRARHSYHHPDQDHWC
T1 sequence (P54284 whole entry partner): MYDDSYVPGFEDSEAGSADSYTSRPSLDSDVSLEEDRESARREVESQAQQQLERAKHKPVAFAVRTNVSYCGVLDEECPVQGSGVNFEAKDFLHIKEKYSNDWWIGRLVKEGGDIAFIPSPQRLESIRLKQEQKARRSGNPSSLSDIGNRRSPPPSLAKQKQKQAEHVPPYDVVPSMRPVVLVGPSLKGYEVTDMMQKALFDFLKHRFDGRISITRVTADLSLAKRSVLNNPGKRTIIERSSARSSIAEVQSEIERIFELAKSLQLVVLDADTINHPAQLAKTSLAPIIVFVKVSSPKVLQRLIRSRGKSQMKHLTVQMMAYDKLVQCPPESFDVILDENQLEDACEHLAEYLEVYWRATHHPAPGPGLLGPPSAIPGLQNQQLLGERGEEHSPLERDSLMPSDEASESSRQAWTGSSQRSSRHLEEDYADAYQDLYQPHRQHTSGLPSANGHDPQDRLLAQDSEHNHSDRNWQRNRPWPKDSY
T1 sequence (P54289 25-946 partner limits assumed): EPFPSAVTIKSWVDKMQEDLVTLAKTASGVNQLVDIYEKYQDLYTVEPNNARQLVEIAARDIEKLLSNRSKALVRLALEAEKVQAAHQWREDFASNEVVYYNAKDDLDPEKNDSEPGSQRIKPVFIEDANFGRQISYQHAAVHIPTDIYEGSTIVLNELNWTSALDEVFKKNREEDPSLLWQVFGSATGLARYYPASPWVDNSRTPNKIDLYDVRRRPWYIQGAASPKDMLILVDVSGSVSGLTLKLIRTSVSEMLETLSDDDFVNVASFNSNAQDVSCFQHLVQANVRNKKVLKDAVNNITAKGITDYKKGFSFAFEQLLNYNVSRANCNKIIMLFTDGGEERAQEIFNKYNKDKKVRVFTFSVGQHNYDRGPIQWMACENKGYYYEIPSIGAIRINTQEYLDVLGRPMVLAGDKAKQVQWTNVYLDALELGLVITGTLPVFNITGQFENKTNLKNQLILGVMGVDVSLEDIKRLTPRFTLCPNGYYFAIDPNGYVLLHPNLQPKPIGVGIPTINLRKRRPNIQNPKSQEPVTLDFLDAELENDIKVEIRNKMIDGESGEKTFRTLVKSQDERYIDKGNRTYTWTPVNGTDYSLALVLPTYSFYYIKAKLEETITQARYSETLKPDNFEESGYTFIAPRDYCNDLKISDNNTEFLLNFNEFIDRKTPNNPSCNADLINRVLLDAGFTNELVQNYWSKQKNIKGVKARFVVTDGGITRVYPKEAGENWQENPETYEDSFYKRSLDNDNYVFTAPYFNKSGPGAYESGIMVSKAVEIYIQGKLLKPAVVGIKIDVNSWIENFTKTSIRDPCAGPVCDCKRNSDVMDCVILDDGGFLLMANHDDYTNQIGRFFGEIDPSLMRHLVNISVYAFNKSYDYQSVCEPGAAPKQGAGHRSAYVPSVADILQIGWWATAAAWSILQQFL
T1 sequence (P54289 947-1103 partner limits assumed): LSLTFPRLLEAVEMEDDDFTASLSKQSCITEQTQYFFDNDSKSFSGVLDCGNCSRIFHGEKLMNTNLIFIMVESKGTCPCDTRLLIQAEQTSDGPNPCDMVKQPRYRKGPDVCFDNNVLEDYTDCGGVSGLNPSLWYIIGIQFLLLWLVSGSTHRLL

| SMILES | IMR 32 % of Blockade @ 1 μM [1] [%] | IC50 [2] [nM] | other results |
| --- | --- | --- | --- |
| CC(C)C[C@@H](C(=O)N[C@@H](Cc1ccc(OCc2ccccc2)cc1)C(=O)N1CCN(Cc2ccccc2)CC1)N(C)C1CCCCC1 (relative stereo) [Example 22, [S-(R*,R*)]-2-(Cyclohexyl-methyl-amino)-4-methyl-pentanoic acid [1-(4-benzyloxy-benzyl)-2-(4-benzyl-piperazin-1-yl)-2-oxo-ethyl]-amide] | 57 | – | IMR 32 % of Blockade @ 10 μM [1]: 87% |
| CC(C)C[C@@H](C(=O)N[C@@H](Cc1ccc(OCc2ccccc2)cc1)C(=O)NC1CCN(Cc2ccccc2)CC1)N(C)C1CCCCC1 (relative stereo) [Example 23, [S-(R*,R*)]-2-(Cyclohexyl-methyl-amino)-4-methyl-pentanoic acid [2-(4-benzyloxy-phenyl)-1-(1-benzyl-piperidin-4-ylcarbamoyl)-ethyl]-amide] | 53 | – | IMR 32 % of Blockade @ 3 μM [1]: 80% |
| CC(C)C[C@@H](C(=O)N[C@@H](Cc1ccc(OCc2ccccc2)cc1)C(=O)N1CCN(C)CC1)N(C)C1CCCCC1 (relative stereo) [Example 24, [S-(R*,R*)]-2-(Cyclohexyl-methyl-amino)4-methyl-pentanoic acid [1-(4-benzyloxy-benzyl)-2-(4-methyl-piperazin-1-yl)-2-oxo-ethyl]-amide] | 32 | – | IMR 32 % of Blockade @ 10 μM [1]: 84% |
| CC(C)C[C@@H](C(=O)N[C@@H](Cc1ccc(OCc2ccccc2)cc1)C(=O)N1CCCCC1)N(C)CC1CCCCC1 (relative stereo) [Example 26, [S-(R*,R*)]-2-(Cyclohexylmethyl-methyl-amino)-4-methyl-pentanoic acid [^2-(^4-benzyloxy-phenyl)-1-(piperidine-1-carbonyl)-ethyl]-amide] | – | 600 | – |
| CC(C)C[C@@H](C(=O)N[C@@H](Cc1ccc(OCc2ccccc2)cc1)C(=O)NCCN1CCCCC1)N(C)CC1CCCCC1 (relative stereo) [Example 27, [S-(R*,R*)]-2-(Cyclohexylmethyl-methyl-amino)-4-methyl-pentanoic acid [2-(4-benzyloxy-phenyl)-1-(2-piperidin-1-yl-ethylcarbamoyl)-ethyl]-amide] | – | 1300 | – |
| CC(C)C[C@@H](C(=O)N[C@@H](Cc1ccc(OCc2ccccc2)cc1)C(=O)N1CCN(Cc2ccccc2)CC1)N(C)CC1CCCCC1 (relative stereo) [Example 28, [S-(R*,R*)]-2-(Cyclohexylmethyl-methyl-amino)-4-methyl-pentanoic acid [1-(4-benzyloxy-benzyl)-2-(4-benzyl-piperazin-1-yl)-2-oxo-ethyl]-amide] | – | 500 | – |
| CC(C)C[C@@H](C(=O)N[C@@H](Cc1ccc(OCc2ccccc2)cc1)C(=O)NC1CCN(Cc2ccccc2)CC1)N(C)CC1CCCCC1 (relative stereo) [Example 29, [S-(R*,R*)]-2-(Cyclohexylmethyl-methyl-amino)-4-methyl-pentanoic acid [2-(4-benzyloxy-phenyl)-1-(1-benzyl-piperidin-4-ylcarbamoyl)-ethyl]-amide] | – | 600 | – |
| CC(C)C[C@H](NCc1ccc(C(C)(C)C)cc1)C(=O)N[C@@H](Cc1ccc(OCc2ccccc2)cc1)C(=O)OC(C)(C)C (relative stereo) [Example 32, [S-(R*,R*)]-3-(4-Benzyloxy-phenyl)-2-[2-(4-tert-butyl-benzylamino)-4-methyl-pentanoylamino]-propionic acid tert-butyl ester] | – | 250 | – |
| CC(C)C[C@H](NCc1ccccc1)C(=O)N[C@@H](Cc1ccc(OCc2ccccc2)cc1)C(=O)OC(C)(C)C (relative stereo) [Example 33, [S-(R*,R*)]-2-(2-Benzylamino-4-methyl-pentanoylamino)-3-(4-benzyloxy-phenyl)-propionic acid tert-butyl ester] | 52 | – | IMR 32 % of Blockade @ 10 μM [1]: 95% |
| CN[C@@H](CC(C)C)C(=O)N[C@@H](Cc1ccc(OCc2ccccc2)cc1)C(=O)NC(C)(C)C (relative stereo) [Example 35, [S-(R*,R*)]-4-Methyl-2-methylamino-pentanoic acid [2-(4-benzyloxy-phenyl)-1-tert-butylcarbamoyl-ethyl]-amide] | – | 2300 | – |
| CC(C)C[C@@H](C(=O)N[C@@H](Cc1ccc(OCc2ccccc2)cc1)C(=O)NC(C)(C)C)N(C)CCC(C)(C)C (relative stereo) [Example 36, [S-(R*,R*)]-2-[(3,3-Dimethyl-butyl)-methyl-amino]-4-methyl-pentanoic acid [2-(4-benzyloxy-phenyl)-1-tert-butylcarbamoyl-ethyl]-amide] | – | 400 | – |
| CC(C)C[C@@H](C(=O)N[C@@H](Cc1ccc(OCc2ccccc2)cc1)C(=O)NC(C)(C)C)N(C)C1CCC(C(C)(C)C)CC1 (relative stereo) [Example 38, [S-(R*,R*)]-2-[(4-tert-Butyl-cyclohexyl)-methyl-amino]-4-methyl-pentanoic acid [2-(4-benzyloxy-phenyl)-1-tert-butylcarbamoyl-ethyl]-amide] | 23 | – | – |
| CC(C)C[C@@H](C(=O)N[C@@H](Cc1ccc(OCc2ccccc2)cc1)C(=O)NC(C)(C)C)N(C)C1CCC(C)CC1 (relative stereo) [Example 39, [S-(R*,R*)]-4-Methyl-2-[methyl-(4-methyl-cyclohexyl)-amino]-pentanoic acid [2-(4-benzyloxy-phenyl)-1-tert-butylcarbamoyl-ethyl]-amide] | – | 390 | – |
| CC(C)C[C@@H](C(=O)N[C@@H](Cc1ccc(OCc2ccccc2)cc1)C(=O)NC(C)(C)C)N(C)Cc1ccc(N(C)C)cc1 (relative stereo) [Example 40, [S-(R*,R*)]-2-[(4-Dimethylamino-benzyl)-methyl-amino]-4-methyl-pentanoic acid [2-(4-benzyloxy-phenyl)-1-tert-butylcarbamoyl-ethyl]-amide] | – | – | IC50: 280 nM |
| CCCCN(C)[C@@H](CC(C)C)C(=O)N[C@@H](Cc1ccc(OCc2ccccc2)cc1)C(=O)NC(C)(C)C (relative stereo) [Example 41, [S-(R*,R*)]-2-(Butyl-methyl-amino)-4-methyl-pentanoic acid [2-(4-benzyloxy-phenyl)-1-tert-butylcarbamoyl-ethyl]-amide] | – | 280 | – |
| CC(C)C[C@@H](C(=O)N[C@@H](Cc1ccc(OCc2ccccc2)cc1)C(=O)NC(C)(C)C)N(C)CC(C)C (relative stereo) [Example 42, [S-(R*,R*)]-2-(Isobutyl-methyl-amino)-4-methyl-pentanoic acid [2-(4-benzyloxy-phenyl)-1-tert-butylcarbamoyl-ethyl]-amide] | – | 380 | – |
| CN[C@@H](CC(C)C)C(=O)N[C@@H](Cc1ccc(OCc2ccccc2)cc1)C(=O)N1CCN(Cc2ccccc2)CC1 (relative stereo) [Example 43, [S-(R*,R*)]-4-Methyl-2-methylamino-pentanoic acid [1-(4-benzyloxy-benzyl)-2-(4-benzyl-piperazin-1-yl)-2-oxo-ethyl]-amide] | 51 | – | IMR 32 % of Blockade @ 10 μM [1]: 96% |
| CCC[C@@H](C(=O)N[C@@H](Cc1ccc(OCc2ccccc2)cc1)C(=O)NC(C)(C)C)N(C)CCC(C)C (relative stereo) [Example 46, [S-(R*,R*)]-4-Methyl-2-[methyl-(3-methyl-butyl)-amino]-butyric acid [2-(4-benzyloxy-phenyl)-1-tert-butylcarbamoyl-ethyl]-amide] | – | – | IMR 32 % of Blockade @ 0.3 μM (0.3 μM, IMR-32 cells, 5 μM nitrendipine): 36%; IMR 32 % of Blockade @ 3 μM [1]: 74% |
| CC(C)C[C@H](N[C@@H]1C=CCCC1)C(=O)NC(Cc1ccc(OCc2ccccc2)cc1)C(=O)NC(C)(C)C (relative stereo) [Example 49, [S-(R*,R*)]-2-(Cyclohex-2-enylamino)-4-methyl-pentanoic acid [2-(4-benzyloxy-phenyl)-1-tert-butylcarbamoyl-ethyl]-amide] | – | 660 | – |
| CC(C)=CCN(C)[C@@H](CC(C)C)C(=O)N[C@@H](Cc1ccc(OCc2ccccc2)cc1)C(=O)NC(C)(C)C (relative stereo) [Example 51, [S-(R*,R*)]4-Methyl-2-[methyl-(3-methyl-but-2-enyl)-amino]-pentanoic acid [2-(4-benzyloxy-phenyl)-1-tert-butylcarbamoyl-ethyl]-amide] | – | 1300 | – |
